Measurements reported in patent US20230286956A1 (DUKSUNG WOMEN'S UNIVERSITY INDUSTRY-ACADEMIC COOPERATION …, priority 2020, published 2023).

Tests used:
SH-SY5Y cell line [1] = assay: Inhibition of reactive oxygen species generation (CM-H2DCFDA) after MPP+ or rotenone; type: cell-based; conditions: 10 µM compound, then MPP+ (2 mM) or rotenone (2 µM) for 24 hours
Method: It is known that reactive oxygen species are generated by inhibition of mitochondria, activation of NOX enzyme, and the like when MPP+ or rotenone is administered to a cell line. Since the reactive oxygen species generated at this time react with the CM-H2DCFDA reagent to be fluorescent, the reactive oxygen species can be indirectly quantified.
Specifically, the SH-SY5Y cell line was treated with Compound 1aaa (Compound 1, 10 µM), apocynin (5 µM), or allopurinol (50 µM), and then with MPP+ (2 mM) or rotenone (2 µM) for 24 hours. The effect of each compound to inhibit the generation of reactive oxygen species is illustrated in FIGS. 2 and 3 as a relative percentage to that of the control group.

SH-SY5Y cell line [2] = assay: Cell viability (MTT assay) after MPP+ or rotenone; type: cell-based; conditions: 0.5 µM compound, then MPP+ (2 mM) or rotenone (2 µM) for 24 hours
Method: Specifically, the SH-SY5Y cell line was treated with 0.5 µM of Compound 1aaa (Compound 1), 1aca (Compound 24), lace (Compound 27), 1ahe (Compound 44) or 1aje (Compound 62) and then with MPP+ (2 mM) or rotenone (2 µM) for 24 hours. Cell viability in the case of being treated with each compound is illustrated in FIGS. 4 and 5.

alpha-synuclein = assay: Alpha-synuclein aggregation (phosphorylation) inhibition, Western blotting; type: cell-based; conditions: SH-SY5Y, 10 µM compound then rotenone
Method: When rotenone is administered to nerve cells, phosphorylation, namely aggregation of alpha-synuclein occurs. Phosphorylation, aggregation of alpha-synuclein can be observed and quantified through Western blotting.
Specifically, the SH-SY5Y cell line was treated with Compound 1aaa (Compound 1, 10 µM) and then with rotenone. Thereafter, Western blotting was performed to measure the expression levels of alpha-synuclein and phosphorylated alpha-synuclein, and the results are illustrated in FIG. 6.

Nrf-2 = Nrf-2 induction, nuclear fraction Western blotting; type: cell-based; conditions: SH-SY5Y, 10 µM compound for 24 hours
Method: When oxidative stress caused by reactive oxygen species increases in cells, the synthesis of antioxidants increases in response to this. One of the transcription factors mediating this antioxidant response is Nrf-2. As the transcription factor Nrf-2 enters the nucleus and the expression of genes related to antioxidation increases, the antioxidant capacity of cells increases.
Specifically, the SH-SY5Y cell line was exposed to Compound 1aaa (Compound 1, 10 µM) for 24 hours and then the cells were taken. Thereafter, the nuclear fraction was extracted, then Western blotting was performed to analyze the amount of Nrf-2 in the nucleus, and the results are illustrated in FIG. 7.

[3] = Single acute toxicity evaluation 1 (1000 mg/kg oral); type: in vivo, ICR mice
Method: Acute toxicity properties after single administration of the compound of the present invention were evaluated in an animal model.

[4] = tested on: substantia nigra dopaminergic neurons; assay: Inhibition of dopaminergic nerve cell death in MPTP animal model of Parkinson's disease (tyrosine hydroxylase immunostaining); type: in vivo, C57B16/J mice; conditions: for survival rate of dopaminergic neurons, of that in the control group: 1 week before and after MPTP
Method: The dopaminergic neuronal cell protecting effect of the compound of the present invention was evaluated in an animal model of Parkinson’s disease. The animal model used was 7-week-old C57B16/J mice (23 to 25 g), to which MPTP (15 mg/kg) was administered 4 times at 1.5 hour intervals. For 1 to 2 days after administration, behavior was noticeably slowed and gradually recovered. In 1 week after MPTP administration, behavior was almost normalized to a level similar to that of normal mice.
In order to evaluate the efficacy of the compounds of the present invention, Compounds 1aaa (Compound 1), lace (Compound 27), 1ahe (Compound 44) and 1aje (Compound 62) were each administered at a dose of 5 mg/kg for 1 week, then MPTP (15 mg/kg x 4 times) was injected. These compounds were additionally administered for 1 week, and then dopamine innervation in the substantia nigra region was analyzed through immunostaining.
Specifically, selegiline, 1aaa, lace, 1ahe, 1aje, and apocynin were administered at a dose of 5 mg/kg for 7 days, then MPTP (15 mg/kg x 4 times) was administered to induce damage to dopaminergic neurons. After 7 days of additional administration of the compounds at the same dose, the animals were sacrificed. Immunostaining was performed using tyrosine hydroxylase antibody to measure the survival rate of substantia nigra dopaminergic neurons. After immunostaining, the number of surviving dopaminergic neurons was analyzed. The results are illustrated in FIG. 8.
In order to evaluate the efficacy of the compounds of the present invention, Compounds 1abv (Compound 22), 1abw (Compound 23), and 1ahs (Compound 52) were each intraperitoneally administered at a dose of 5 mg/kg for 1 week or orally administered at a dose of 50 mg/kg, then MPTP (15 mg/kg x 4 times) was injected. These compounds were additionally administered for 1 week, and then dopamine innervation in the substantia nigra region was analyzed through immunostaining. The results are illustrated in FIG. 9.
(§1) In order to evaluate the dopaminergic neuroprotective effect of the compounds of the present invention, Compounds 1aja (Compound 59) and 1abk (Compound 17) were each intraperitoneally administered at a dose of 5 mg/kg for 1 week, then MPTP (15 mg/kg x 4 times) was injected. These compounds were additionally administered for 1 week. After immunostaining using brain slices from each group, surviving dopaminergic neurons were photographed under a microscope and analyzed. The results are illustrated in FIG. 10.
as §1, with “1ajs” for “1aja”, “63), 1ajy (Compound 67),” for “59)”, “1aqj” for “1abk”, “85)” for “17)”, “11.” for “10.”

MPTP-administered mice = assay: Behavioral activity: beam test and challenge beam test in MPTP mice; type: in vivo; conditions: intraperitoneal 5 mg/kg
Method: In order to evaluate the behavioral activation by the compounds of the present invention, Compounds lace (Compound 27), 1ahe (Compound 44), and 1abv (Compound 22) were each intraperitoneally administered at a dose of 5 mg/kg for 1 week, then MPTP (15 mg/kg x 4 times) was injected. These compounds were additionally administered for 1 week. A beam test and a challenge beam test were conducted 1 day before and 2 days after MPTP administration, respectively. The results are illustrated in FIG. 12.
In order to evaluate the behavioral activation by the compounds of the present invention, Compounds 1ajs (Compound 63), 1ajy (Compound 67), and 1abw (Compound 23) were each intraperitoneally administered at a dose of 5 mg/kg for 1 week, then MPTP (15 mg/kg x 4 times) was injected. These compounds were additionally administered for 1 week. A beam test and a challenge beam test were conducted 2 days after MPTP administration. The results are illustrated in FIG. 13.

[5] = Single acute toxicity evaluation 2 (2000 mg/kg oral); type: in vivo, ICR mice
Method: Acute toxicity properties after single administration of the compounds of the present invention were evaluated in an animal model.

[6] = tested on: wild-type red mold strain GZ3639; assay: Inhibition of spore germination / reactive oxygen species generation through NOX enzyme inhibition in red mold; type: cell-based; conditions: 24 h, read-out: IC50 (µM), compound concentration at which the spore germination inhibition rate was 50%
in vivo = assay: in vivo; design: species or system SD rats; conditions: SD, rat, po
Method: The bioavailability (BA) and pharmacokinetic properties of the compounds of the present invention were evaluated in an animal model. The compounds were administered to 8-week-old SD rats (300 to 350 g) at a dose of 2 to 5 mg/kg through oral and intravenous administration routes. After administration, blood was collected at regular time intervals and the time course of blood concentration was analyzed.

[7] = Evaluation 2: intraperitoneal 5 mg/kg or oral 50 mg/kg
[8] = Evaluation 1: beam test and challenge beam test
[9] = Evaluation 2: beam test, 2 days after MPTP

## CN1C(=[Se])N(c2ccccc2)C(=O)C1=Cc1ccc(O)cc1O [Compound 1aaa]
SH-SY5Y cell line [1]
  inhibition of increased generation of reactive oxygen species: effectively inhibits
SH-SY5Y cell line [2]
  cell viability / inhibition of cell death: significantly inhibit cell death
alpha-synuclein
  phosphorylation of alpha-synuclein by rotenone: significantly reduced
Nrf-2
  amount of Nrf-2 in the nucleus, increase: about 1.5 times
[3]
  autopsy report findings: no specific findings
  organ weight: no change in organ weight
[3]; day 0
  change in body weight: 100
[3]; day 1
  change in body weight: 98.06
[3]; day 2
  change in body weight: 101.29
[3]; day 3
  change in body weight: 104.85
[3]; day 5
  change in body weight: 106.47
[3]; day 7
  change in body weight: 109.39
[3]; observed for 1 week
  acute toxicity phenomenon: a specific acute toxicity phenomenon was not observed

## Cc1ccc(N2C(=O)C(=Cc3ccc(NCCOCCO)cc3)N(C)C2=[Se])cc1 [Compound 1abv]
[4]; [7]
  survival rate of dopaminergic neurons, of that in the control group: 67.8%
MPTP-administered mice; [8]
  reduction of time for mice to reach the home cage compared to MPTP administration group: ≥ 50%
[5]; day 0
  change in body weight: 100
[5]; day 2
  change in body weight: 99.0
[5]; day 4
  change in body weight: 100.0
[5]; day 8
  change in body weight: 102.5
[5]; day 10
  change in body weight: 103.4
[5]; day 14
  change in body weight: 105.0

## Cc1ccc(N2C(=O)C(=Cc3ccc(NCCN4CCOCC4)cc3)N(C)C2=[Se])cc1 [Compound 1abw]
[4]; [7]
  survival rate of dopaminergic neurons, of that in the control group: 72.3%
MPTP-administered mice; [9]
  reduction of time for mice to reach the home cage compared to MPTP administration group: about 50%

## CCc1ccc(N2C(=O)C(=Cc3ccc(O)cc3O)N(C)C2=[Se])cc1 [Compound 1aca]
SH-SY5Y cell line [2]
  cell viability / inhibition of cell death: significantly inhibit cell death

## CN1C(=[Se])N(CCc2ccccc2)C(=O)C1=Cc1cc(O)cc(O)c1 [Compound 1ahe]
SH-SY5Y cell line [2]
  cell viability / inhibition of cell death: significantly inhibit cell death
[5]; day 0
  change in body weight: 100
[5]; day 2
  change in body weight: 98.6
[5]; day 4
  change in body weight: 100.9
[5]; day 8
  change in body weight: 104.2
[5]; day 10
  change in body weight: 105.5
[5]; day 14
  change in body weight: 106.0

## CCCCCCN1C(=O)C(=Cc2cc(O)cc(O)c2)N(C)C1=[Se] [Compound 1aje]
SH-SY5Y cell line [2]
  cell viability / inhibition of cell death: significantly inhibit cell death

## CCCCCCN1C(=O)C(=Cc2ccc(N3CCOCC3)cc2)N(C)C1=[Se] [Compound 1ajs]
MPTP-administered mice; [9]
  reduction of time for mice to reach the home cage compared to MPTP administration group: about 50%
[5]; day 0
  change in body weight: 100
[5]; day 2
  change in body weight: 94.3
[5]; day 4
  change in body weight: 91.9
[5]; day 8
  change in body weight: 96.7
[5]; day 10
  change in body weight: 101.6
[5]; day 14
  change in body weight: 99.4

## CCCCCCN1C(=O)C(=Cc2ccc(NCCOCCF)cc2)N(C)C1=[Se] [Compound 1ajy]
[4]; Evaluations 3 and 4: intraperitoneal 5 mg/kg
  survival rate of dopaminergic neurons, of that in the control group: 50.6%
MPTP-administered mice; [9]
  reduction of time for mice to reach the home cage compared to MPTP administration group: about 50%

## Cc1ccc(N2C(=O)/C(=C\c3ccc(NCCOCCO)cc3)N(C)C2=[Se])cc1 [Compound 22, 5-(4-((2-(2-hydroxyethoxy)ethyl)amino)benzylidene)-1-methyl-2-selenoxo-3-(4-tolyl)imidazoline-4-on]
[6]
  IC50: 2.3 µM
In vivo
  bioavailability: 55%

## CCc1ccc(N2C(=O)/C(=C\c3cc(O)cc(O)c3)N(C)C2=[Se])cc1 [Compound 27, 5-(3,5-dihydroxybenzylidene)-3-(4-ethylphenyl)-1-methyl-2-selenoxoimidazolidine-4-on]
[6]
  IC50: 9 µM
In vivo
  bioavailability: 31%

## CN1C(=[Se])N(CCc2ccccc2)C(=O)/C1=C\c1cc(O)cc(O)c1 [Compound 44]
[6]
  IC50: 1 µM
In vivo
  bioavailability: 73%

## CCCCCCN1C(=O)/C(=C\c2ccc(O)cc2O)N(C)C1=[Se] [Compound 59, 5-(2,4-dihydroxybenzylidene)-3-hexyl-1-methyl-2-selenoxoimidazolidine-4-on]
[6]
  IC50: 0.68 µM
In vivo
  bioavailability: 23%

## CCc1ccc(N2C(=O)C(=Cc3cc(O)cc(O)c3)N(C)C2=[Se])cc1 [lace]
SH-SY5Y cell line [2]
  cell viability / inhibition of cell death: significantly inhibit cell death
[4]; Evaluation 1: 5 mg/kg for 7 days, MPTP 15 mg/kg x 4, 7 further days
  survival rate of substantia nigra dopaminergic neurons, of that in the control group: 79.6%
MPTP-administered mice; [8]
  reduction of time for mice to reach the home cage compared to MPTP administration group: ≥ 50%
